Measurements taken from patent publication US9452154B2, “Methods for treating HCV” (Gilead Sciences, Inc., priority 2010, dated 2016).
“And” between values parts separate entries of the source, which are not always exact repeats. Equal values may be shown once. Read-outs that look alike come from different tables or passages of the source.

Assays:
HCV genotype 1a replicon [1] = assay: Biological Example 3: HCV genotype 1a replicon assay, EC50; type: cell-based; conditions: Hepatitis C virus, 72 h, 3 days, read-out: EC50
[2] = Biological Example 3: cytotoxicity (calcein AM), CC50; type: cell-based; conditions: human, Huh-7 cells carrying a HCV genotype 1a replicon; HCV genotype 1a replicon cells; calcein AM
GT-1b Huh-lunet cells = assay: Biological Example 4: antiviral combination studies with Compound 5 (MacSynergy II); type: cell-based, HCV; conditions: in combination with Compound 5, 1b replicon cells
HCV 1b replicon system = assay: Biological Example 5: antiviral combination studies with Compound 6 (MacSynergy II); type: cell-based; conditions: in combination with Compound 6
[3] = test system: Genotype 1b replicon cells; assay: Biological Example 6: compound concentration required to suppress replicon RNA by 1-1.5 log over 6 days (QRT-PCR); type: cell-based, HCV; conditions: 6 day assay
Description: Flasks were incubated at 37° C., media and compounds were refreshed every two days. After 6 days of incubation the replicon cells were collected for RNA extraction and replicon RNA QRT-PCR analysis.

[4] = test system: NS3 GT1a mutant replicons; type: cell-based, HCV
[5] = test system: NS3 GT1b mutant replicons; type: cell-based, HCV
[6] = test system: Genotype 1b replicon cells; assay: Biological Example 6: compound combination replicon cure assay; conditions: after 6 days treatment, G418 for 14 days; Compound 6 4 pM, Compound 4 1000 nM, Compound 1 10 nM, Compound 3 26.25 nM
[7] = test system: Huh-7 cells carrying a HCV genotype 1a replicon; assay: Biological Example 3: cytotoxicity in combination studies (MacSynergy II); conditions: in combination with Compound 4
HCV genotype 1a replicon [8] = assay: Biological Example 3: antiviral combination studies with Compound 4 (MacSynergy II); conditions: in combination with Compound 4
HCV 1b RLuc = assay: microbe, parasite or virus in culture; type: cell-based; conditions: Hepatitis C virus, read-out: antiviral potency [EC50]
[9] = test system: GT1b and GT1a mutant replicons; assay: Biological Example 8: summary of cross resistance of mutant replicons; type: cell-based, HCV; conditions: all single NS3 PI-resistant mutants
Huh-luc replicon cells = assay: Biological Example 5: cellular cytotoxicity (CellTiter-Glo); conditions: highest concentrations tested (column Concentration(s)); relative to untreated controls
Description: Replicon cells were seeded and treated with drugs as described for the antiviral combination studies above. After three day incubation at 37° C., the culture media was removed and cells were lysed and assayed for cytotoxicity using a CellTiter-Glo Luminescent Cell Viability Assay (Promega) according to the manufacturer's instructions. Relative Light Units were converted into percentages relative to the untreated controls (defined as 100%).

[10] = Drug-drug interaction: exposure on co-administration with Compound 2
[11] = mutant R155K + Y488H (first line, r20)
[12] = mutant R155K + Y488H (second line, r26)

CC[C@@H]1C[C@]1(NC(=O)[C@@H]1C[C@@H](Oc2cc(-c3csc(NC(C)C)n3)nc3c(Cl)c(OCCN4CCOCC4)ccc23)CC1C(=O)[C@@H](NC(=O)O[C@@H]1C[C@@H]2C[C@@H]2C1)C(C)(C)C)C(=O)O (some centres unmarked) [Compound 3]
EC50 (HCV genotype 1a replicon [1]): 49 ± 18 nM
CC50 at 3 days [2]: > 22200 nM
Antagonism Volume (GT-1b Huh-lunet cells): −2 ± 2 nM^2
Interaction (GT-1b Huh-lunet cells): Additive
Synergy Volume (GT-1b Huh-lunet cells): 19 ± 13 nM^2
Antagonism Volume (HCV 1b replicon system): −0.1 ± 0.2 nM^2
Interaction (HCV 1b replicon system): Strong Synergy
Synergy Volume (HCV 1b replicon system): 132 nM^2 and 132 ± 44 nM^2
Compound concentration able to induce replicon RNA 1-1.5 log drop [3]: 26.25 nM
fold change in EC50 vs wild-type GT1a ([4]; mutant A156T): >141 fold
fold change in EC50 vs wild-type GT1a ([4]; mutant D168A): >300 fold
fold change in EC50 vs wild-type GT1a ([4]; mutant D168E): 25.1 fold
fold change in EC50 vs wild-type GT1a ([4]; mutant D168G): >138 fold
fold change in EC50 vs wild-type GT1a ([4]; mutant D168H): >250 fold
fold change in EC50 vs wild-type GT1a ([4]; mutant D168N): 20.5 fold
fold change in EC50 vs wild-type GT1a ([4]; mutant D168V): >156 fold
fold change in EC50 vs wild-type GT1a ([4]; mutant D168Y): >175 fold
fold change in EC50 vs wild-type GT1a ([4]; mutant R155I): 0.9 fold
fold change in EC50 vs wild-type GT1a ([4]; mutant R155K): >150 fold
fold change in EC50 vs wild-type GT1a ([4]; mutant R155K + L31M): >100 fold
fold change in EC50 vs wild-type GT1a ([4]; mutant R155K + L31M + Y448H): >145 fold
fold change in EC50 vs wild-type GT1a ([4]; mutant R155K + M28T): >100 fold
fold change in EC50 vs wild-type GT1a ([4]; mutant R155K + M28T + Y448H): 89.0 fold
fold change in EC50 vs wild-type GT1a ([4]; mutant R155K + Q30H + Y448H): >130 fold
fold change in EC50 vs wild-type GT1a ([4]; mutant R155K + Q30R): >100 fold
fold change in EC50 vs wild-type GT1a ([4]; mutant R155K + Y93H): >100 fold
fold change in EC50 vs wild-type GT1a [4, 11]: >130 fold
fold change in EC50 vs wild-type GT1a [4, 12]: >100 fold
fold change in EC50 vs wild-type GT1a ([4]; mutant R155M): 1.5 fold
fold change in EC50 vs wild-type GT1a ([4]; mutant R155S): 4.0 fold
fold change in EC50 vs wild-type GT1a ([4]; mutant R155T): 2.3 fold
fold change in EC50 vs wild-type GT1a ([4]; mutant R155W): 32.1 fold
fold change in EC50 vs wild-type GT1a ([4]; mutant R155k + Q30H): >100 fold
fold change in EC50 vs wild-type GT1b ([5]; mutant R155L): 1.2 fold and 0.9 fold
Uncured colony number [6]: 989
Antagonism Volume (cytotoxicity) [7]: 0 ± 0 nM^2%
Interaction (cytotoxicity) [7]: Additivity (Additivity: ≦25 and >−25 nM^2%)
Synergy Volume (cytotoxicity) [7]: 3 ± 5 nM^2%
Antagonism Volume (HCV genotype 1a replicon [8]): −3 ± 2 nM^2%
Synergy Volume (HCV genotype 1a replicon [8]): 26 ± 6 nM^2%

COC(=O)N[C@H](C(=O)N1CC2(CC2)C[C@H]1c1ncc(-c2ccc3c(c2)C(F)(F)c2cc(-c4ccc5nc([C@@H]6[C@H]7CC[C@H](C7)N6C(=O)[C@@H](NC(=O)OC)C(C)C)[nH]c5c4)ccc2-3)[nH]1)C(C)C [Compound 6, (1-{3-[6-(9,9-Difluoro-7-{2-[5-(2-methoxycarbonylamino-3-methyl-butyryl)-5-aza-spiro[2.4]hept-6-yl]-3H-imidazol-4-yl}-9H-fluoren-2-yl)-1H-benzoimidazol-2-yl]-2-aza-bicyclo[2.2.1]heptane-2-carbonyl}-2-methyl-propyl)-carbamic acid methyl ester]
EC50 (HCV 1b RLuc): 0.0045 nM
EC50 (HCV genotype 1a replicon [1]): 0.033 ± 0.011 nM
CC50 at 3 days [2]: > 44400 nM
Antagonism Volume (GT-1b Huh-lunet cells): 0 ± 0 nM^2
Synergy Volume (GT-1b Huh-lunet cells): 34 ± 19 nM^2
Compound concentration able to induce replicon RNA 1-1.5 log drop [3]: 0.004 nM
fold change in EC50 vs wild-type GT1a ([4]; mutant A156T): 0.2 fold
fold change in EC50 vs wild-type GT1a ([4]; mutant D168A): 1.1 fold
fold change in EC50 vs wild-type GT1a ([4]; mutant D168E): 1.3 fold
fold change in EC50 vs wild-type GT1a ([4]; mutant D168G): 0.8 fold
fold change in EC50 vs wild-type GT1a ([4]; mutant D168H): 1.1 fold
fold change in EC50 vs wild-type GT1a ([4]; mutant D168N): 1.2 fold
fold change in EC50 vs wild-type GT1a ([4]; mutant D168V): 1.2 fold
fold change in EC50 vs wild-type GT1a ([4]; mutant D168Y): 0.8 fold
fold change in EC50 vs wild-type GT1a ([4]; mutant R155I): 0.5 fold
fold change in EC50 vs wild-type GT1a ([4]; mutant R155K): 0.6 fold
fold change in EC50 vs wild-type GT1a ([4]; mutant R155K + L31M): 96.9 fold
fold change in EC50 vs wild-type GT1a ([4]; mutant R155K + L31M + Y448H): >330 fold
fold change in EC50 vs wild-type GT1a ([4]; mutant R155K + M28T): 12.3 fold
fold change in EC50 vs wild-type GT1a ([4]; mutant R155K + M28T + Y448H): 53.0 fold
fold change in EC50 vs wild-type GT1a ([4]; mutant R155K + Q30H + Y448H): 55.0 fold
fold change in EC50 vs wild-type GT1a ([4]; mutant R155K + Q30R): 85.3 fold
fold change in EC50 vs wild-type GT1a ([4]; mutant R155K + Y93H): >3000 fold
fold change in EC50 vs wild-type GT1a [4, 11]: 1.1 fold
fold change in EC50 vs wild-type GT1a [4, 12]: 0.5 fold
fold change in EC50 vs wild-type GT1a ([4]; mutant R155M): 0.3 fold
fold change in EC50 vs wild-type GT1a ([4]; mutant R155S): 0.3 fold
fold change in EC50 vs wild-type GT1a ([4]; mutant R155T): 0.3 fold
fold change in EC50 vs wild-type GT1a ([4]; mutant R155W): 0.7 fold
fold change in EC50 vs wild-type GT1a ([4]; mutant R155k + Q30H): 49.4 fold
fold change in EC50 vs wild-type GT1b ([5]; mutant A156D): 0.4 fold
fold change in EC50 vs wild-type GT1b ([5]; mutant A156G): 0.9 fold
fold change in EC50 vs wild-type GT1b ([5]; mutant A156T): 0.4 fold
fold change in EC50 vs wild-type GT1b ([5]; mutant A156V): 0.4 fold
fold change in EC50 vs wild-type GT1b ([5]; mutant D168A): 0.8 fold
fold change in EC50 vs wild-type GT1b ([5]; mutant D168E): 1.0 fold
fold change in EC50 vs wild-type GT1b ([5]; mutant D168E + L31V + Y448H): >210 fold
fold change in EC50 vs wild-type GT1b ([5]; mutant D168E + Y93H + Y448H): >613 fold
fold change in EC50 vs wild-type GT1b ([5]; mutant D168E + Y448H): 0.7 fold
fold change in EC50 vs wild-type GT1b ([5]; mutant D168G): 0.6 fold
fold change in EC50 vs wild-type GT1b ([5]; mutant D168H): 1.2 fold
fold change in EC50 vs wild-type GT1b ([5]; mutant D168H + C445F): 0.3 fold
fold change in EC50 vs wild-type GT1b ([5]; mutant D168L + C445F): 0.4 fold
fold change in EC50 vs wild-type GT1b ([5]; mutant D168N): 0.9 fold
fold change in EC50 vs wild-type GT1b ([5]; mutant D168T): 0.8 fold
fold change in EC50 vs wild-type GT1b ([5]; mutant D168V): 0.9 fold
fold change in EC50 vs wild-type GT1b ([5]; mutant D168V + C445F): 0.4 fold
fold change in EC50 vs wild-type GT1b ([5]; mutant D168V + L31V + Y448H): >126 fold
fold change in EC50 vs wild-type GT1b ([5]; mutant D168V + Y93H + Y448H): >664 fold
fold change in EC50 vs wild-type GT1b ([5]; mutant D168V + Y448H): 0.5 fold
fold change in EC50 vs wild-type GT1b ([5]; mutant D168Y): 0.7 fold
fold change in EC50 vs wild-type GT1b ([5]; mutant L31V + D168E): 228.7 fold
fold change in EC50 vs wild-type GT1b ([5]; mutant L31V + D168V): 117.5 fold
fold change in EC50 vs wild-type GT1b ([5]; mutant R155C): 0.9 fold
fold change in EC50 vs wild-type GT1b ([5]; mutant R155G): 0.7 fold
fold change in EC50 vs wild-type GT1b ([5]; mutant R155K): 2.3 fold
fold change in EC50 vs wild-type GT1b ([5]; mutant R155L): 0.7 fold
fold change in EC50 vs wild-type GT1b ([5]; mutant R155Q): 0.7 fold
fold change in EC50 vs wild-type GT1b ([5]; mutant R155W): 0.4 fold
fold change in EC50 vs wild-type GT1b ([5]; mutant Y93H + D168E): >570 fold
fold change in EC50 vs wild-type GT1b ([5]; mutant Y93H + D168V): >1140 fold
susceptibility of mutants [9]: full susceptibility
Cell Viability % (Huh-luc replicon cells): 99 ± 1%
increase of exposure when combined with Compound 2 [10]: approximately 5 ×
Antagonism Volume (cytotoxicity) [7]: 0 ± 0 nM^2%
Interaction (cytotoxicity) [7]: Additivity (Additivity: ≦25 and >−25 nM^2%)
Synergy Volume (cytotoxicity) [7]: 8 ± 4 nM^2%
Antagonism Volume (HCV genotype 1a replicon [8]): −7 ± 7 nM^2%
Interaction (HCV genotype 1a replicon [8]): Additivity (Additivity: ≦25 and >−25 nM^2%)
Synergy Volume (HCV genotype 1a replicon [8]): 19 ± 17 nM^2%
